Experimental data reported in ChEMBL document CHEMBL1201862, “PubChem BioAssay data set” (2004).
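All cell lines were grown in 96-well plates and treated with compound for 48 hours. GI50 is the concentration that inhibits growth by half.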 Active and inactive are the calls of the source. Cut-off read from the data, not from the text of the source: active = GI50 up to about 1.1 µM and inactive = higher.

Columns and labels:
Assay in all cases: growth of human tumour cells (NCI), 48 h
[1] = tested on: DMS-114
[2] = tested on: HOP-18
[3] = tested on: UACC-62
[4] = tested on: RXF 393
[5] = tested on: CAKI-1
[6] = tested on: NCI-H522
[7] = tested on: SK-MEL-5
[8] = tested on: A498
[9] = tested on: SW-620
[10] = tested on: NCI-H23
[11] = tested on: ACHN
[12] = tested on: SNB-19
[13] = tested on: NCI-H226
[14] = tested on: UO-31
[15] = tested on: HCT-15
[16] = tested on: SNB-75
[17] = tested on: NCI-H460
[18] = tested on: LOX IMVI
[19] = tested on: HCT-116
[20] = tested on: M14
[21] = tested on: RPMI-8226
[22] = tested on: DMS-273
[23] = tested on: OVCAR-3
[24] = tested on: SN12C
[25] = tested on: HOP-92
[26] = tested on: EKVX
[27] = tested on: SF-268
[28] = tested on: M19-MEL
[29] = tested on: OVCAR-5
[30] = tested on: SNB-78
[31] = tested on: KM-20L2
[32] = tested on: U-251
[33] = tested on: HT-29
[34] = tested on: Malme-3M
[35] = tested on: K562
[36] = tested on: COLO 205
[37] = tested on: OVCAR-8
[38] = tested on: SK-MEL-2
[39] = tested on: DLD-1
[40] = tested on: IGROV-1
[41] = tested on: LXFL 529
[42] = tested on: 786-0
[43] = tested on: SK-MEL-28
[44] = tested on: HOP-62
[45] = tested on: SF-295
[46] = tested on: XF498
[47] = tested on: KM12
[48] = tested on: UACC-257
[49] = tested on: OVCAR-4
[50] = tested on: SF-539
[51] = tested on: A549
[52] = tested on: CCRF-CEM
[53] = tested on: SK-OV-3
[54] = tested on: TK-10
[55] = tested on: MOLT-4

With `O=C(N/C(=C\c1ccc(/C=C(\NC(=O)c2ccccc2)c2nc3cc(Cl)ccc3[nH]2)cc1)c1nc2cc(Cl)ccc2[nH]1)c1ccccc1` as the compound, how does the GI50 [1] read?
Its GI50 is 22.9 µM (inactive).

And the GI50 [2]?
The GI50 was 8.91 µM (inactive).

What about the GI50 [3] of the same compound?
Its GI50 is 16.6 µM (inactive).

What about the GI50 [4] of the same compound?
Its GI50 is 13.4 µM (inactive).

What about the GI50 [5] of the same compound?
Its GI50 is 40.9 µM (inactive).

And the GI50 [6]?
Its GI50 is 13.6 µM (inactive).

What about the GI50 [7] of the same compound?
The GI50 was 17.4 µM (inactive).

What about the GI50 [8] of the same compound?
Its GI50 is 22.9 µM (inactive).

And the GI50 [9]?
Its GI50 is 55 µM (inactive).

What about the GI50 [10] of the same compound?
The GI50 was 27.7 µM (inactive).

What about the GI50 [11] of the same compound?
Its GI50 is 26.9 µM (inactive).

And the GI50 [12]?
The GI50 was 51.9 µM (inactive).

What about the GI50 [13] of the same compound?
The GI50 was > 100 µM (inactive).

And the GI50 [14]?
The GI50 was 25.2 µM (inactive).

What about the GI50 [15] of the same compound?
The GI50 was 21.4 µM.

What about the GI50 [16] of the same compound?
The GI50 was 24.4 µM (inactive).

What about the GI50 [17] of the same compound?
Its GI50 is 29.7 µM (inactive).

What about the GI50 [18] of the same compound?
The GI50 was 25.9 µM (inactive).

What about the GI50 [19] of the same compound?
Its GI50 is 17.7 µM (inactive).

And the GI50 [20]?
The GI50 was 26.9 µM (inactive).

What about the GI50 [21] of the same compound?
The GI50 was 3.99 µM (inactive).

What about the GI50 [22] of the same compound?
Its GI50 is 13.8 µM (inactive).

What about the GI50 [23] of the same compound?
The GI50 was 22.4 µM (inactive).

What about the GI50 [24] of the same compound?
The GI50 was 30.1 µM (inactive).

And the GI50 [25]?
Its GI50 is 35.1 µM (inactive).

And the GI50 [26]?
Its GI50 is 29 µM (inactive).

And the GI50 [27]?
The GI50 was 11.8 µM (inactive).

What about the GI50 [28] of the same compound?
The GI50 was 32.2 µM (inactive).

And the GI50 [29]?
The GI50 was > 100 µM (inactive).

What about the GI50 [30] of the same compound?
The GI50 was > 100 µM (inactive).

What about the GI50 [31] of the same compound?
The GI50 was 18 µM (inactive).

What about the GI50 [32] of the same compound?
The GI50 was 39.6 µM (inactive).

And the GI50 [33]?
The GI50 was 26.3 µM (inactive).

And the GI50 [34]?
Its GI50 is 87.9 µM (inactive).

What about the GI50 [35] of the same compound?
The GI50 was 12 µM (inactive).

And the GI50 [36]?
The GI50 was 24.3 µM (inactive).

And the GI50 [37]?
The GI50 was 27.7 µM (inactive).

And the GI50 [38]?
Its GI50 is 36.7 µM (inactive).

And the GI50 [39]?
Its GI50 is 27.7 µM (inactive).

And the GI50 [40]?
The GI50 was 46 µM (inactive).

What about the GI50 [41] of the same compound?
Its GI50 is 22.9 µM (inactive).

What about the GI50 [42] of the same compound?
Its GI50 is 25.6 µM (inactive).

What about the GI50 [43] of the same compound?
Its GI50 is 17.5 µM (inactive).

And the GI50 [44]?
The GI50 was 63.4 µM (inactive).

And the GI50 [45]?
The GI50 was 28.4 µM (inactive).

And the GI50 [46]?
Its GI50 is 35.1 µM (inactive).

What about the GI50 [47] of the same compound?
The GI50 was 14 µM (inactive).

What about the GI50 [48] of the same compound?
The GI50 was 36.4 µM (inactive).

And the GI50 [49]?
The GI50 was 20.2 µM (inactive).

And the GI50 [50]?
The GI50 was 20.6 µM (inactive).

And the GI50 [51]?
The GI50 was 24.9 µM (inactive).

And the GI50 [52]?
The GI50 was 5.31 µM (inactive).

What about the GI50 [53] of the same compound?
Its GI50 is > 100 µM (inactive).

And the GI50 [54]?
Its GI50 is 28.6 µM (inactive).

What about the GI50 [55] of the same compound?
Its GI50 is 3.89 µM (inactive).
